The subject of the assay is C57BL/6 mouse melanocyte cells (MeI-Ab cells). Kind of assay: Melanin production inhibitory effects using MeI-Ab cells (Dooley's method). Type of assay: cell-based. The conditions noted are these: substances added during 3 days from day 2 of culture, absorbance at 400 nm, hydroquinone 100 ppm. The method, then: The melanin production inhibitory effects of the ODIs obtained in Examples 1 and 2 were measured using MeI-Ab cells.
First, C57BL/6 mouse melanocyte cells (MeI-Ab cells) (Dooley, T. P. et al, Skin pharmacol, 7, pp 188-200) were cultured in a DMEM (Dulbeccos modified Eagles media) medium containing 10% fetal bovine serum, 100 nM 2-O-tetradecanoylphorbol-13-acetate and 1 nM cholera toxin in conditions of 37° C. and 5% CO2. The cultured MeI-Ab cells were detached by 0.25% trypsin-EDTA and cultured in a 24-well plate at a concentration of 10^5 cells/well. During the culture period, 100 ppm hydroquinone and each of the ODIs obtained in Examples 1 and 2 were added to the cells continuously during 3 days from 2 days after the start of the culture. Herein, the hydroquinone was used as a positive control group. The culture broth was collected and washed, and the cells were lysed with 1N sodium hydroxide and measured for absorbance at 400 nm.
Melanin production inhibition (%)=100−(absorbance of each test substance/absorbance of control group×100) [Math Figure 1]

In the case of `Oc1ccc(O)cc1` [Hydroquinone, hydroquinone, reference compound], at 100 ppm the inhibition (Mus musculus, Melanocyte) was 41.1%. `O=c1c(-c2ccc(O)cc2)coc2cc(O)c(O)cc12` [7,6,4′-trihydroxyisoflavone]: the “Melanin production inhibition (%)” value stood at 38.8%. Turning to `O=c1c(-c2ccc(O)c(O)c2)coc2cc(O)ccc12` [7,3′,4′-trihydroxyisoflavone], the “Melanin production inhibition (%)” value is recorded as 38.7%. Same read-out and setting: under `O=c1c(-c2ccc(O)c(O)c2)coc2cc(O)cc(O)c12` [7,5,3′,4′-tetrahydroxyisoflavone] stands 40.8%; under `O=c1c(-c2ccc(O)cc2)coc2c(O)c(O)ccc12` [7,8,4′-trihydroxyisoflavone], 39.8%.

Values taken from US20110033904A1, “METHOD FOR PREPARING ORTHODIHYDROXYISOFLAVONES USING A BIOTRANSFORMATION SYSTEM” (priority 2008, published 2011).
